We go through 2 molecules from ChEMBL document CHEMBL1146980, “Synthesis and antitumor activity of icogenin and its analogue” (Bioorg Med Chem Lett, 2006).

Assay type in all cases: functional, cell-based
Assay [1] deals with KETR3. Briefly: Cytotoxicity against human KETR3 cells by MTT assay. A general note: Formazan colour is commonly taken as a measure of viable cells.
Assay [2] concerns PANC-1. Description: Cytotoxicity against human PANC1 cells by MTT assay.
The test system of assay [3] is PC-3. Description: Cytotoxicity against human PC3M cells by MTT assay.
For assay [4], the system named is NCI-H460. Description: Cytotoxicity against human H460 cells by MTT assay.
Assay [5] deals with HCT-8. Briefly: Cytotoxicity against human HCT8 cells by MTT assay.
The test system of assay [6] is BGC-823. Description: Cytotoxicity against human BGC823 cells by MTT assay.
The subject of assay [7] is A-431. Briefly: Cytotoxicity against human A431 cells by MTT assay.
The subject of assay [8] is Bel-7402. Briefly: Cytotoxicity against human BEL-7402 cells by MTT assay.

Structures are written as SMILES.

As usually defined, the IC50 is the concentration at which inhibition is half-maximal. Take `CO[C@]1(CC[C@H](C)CO)O[C@H]2C[C@H]3[C@@H]4CC=C5C[C@@H](O[C@H]6O[C@H](CO)[C@@H](O)[C@H](O[C@@H]7O[C@H](CO)[C@@H](O)[C@H](O)[C@H]7O)[C@H]6O[C@@H]6O[C@@H](C)[C@H](O)[C@@H](O)[C@H]6O)CC[C@]5(C)[C@H]4CC[C@]3(C)[C@H]2[C@@H]1C`: the IC50 is 3780 nM in assay [1]; 380 nM in assay [2]; 2760 nM in assay [3]; 8160 nM in assay [4]; 1420 nM in assay [5]; 2520 nM in assay [6]. Moreover, the IC50 in assay [7] was 670 nM; in assay [8], 950 nM.

As to `CO[C@]1(CC[C@H](C)CO)O[C@H]2C[C@H]3[C@@H]4CC=C5C[C@@H](O[C@@H]6O[C@H](CO)[C@@H](O)[C@H](O[C@@H]7O[C@H](CO)[C@@H](O)[C@H](O)[C@H]7O)[C@H]6O[C@@H]6O[C@@H](C)[C@H](O)[C@@H](O)[C@H]6O)CC[C@]5(C)[C@H]4CC[C@]3(C)[C@H]2[C@@H]1C` [ICOGENIN], the IC50 in assay [1] was 5150 nM; in assay [2] it was 270 nM; in assay [3], 4350 nM; in assay [4], over 10000 nM; in assay [5], 1450 nM; in assay [6], over 10000 nM. The IC50 came to 3440 nM in assay [7] and 750 nM in assay [8].
